The values that follow come from US8993781B2, “Fluorescent boron-substituted dipyrromethenes and use thereof for diagnosis” (Centre National de la Recherche Scientifique, priority 2008, dated 2015).

The test system of assay [1] is PC12 cells. Briefly: Spectral index of the labeled amyloid peptide on PC12 cells preincubated with unlabeled beta-amyloid peptide. The assay is classed as cell-based, rat. Particulars: PC12 cells preincubated 12 hours with 100 or 250 nM unlabeled peptide, FIG. 5, 4 independent experiments in triplicate. On the procedure: PC12 cells (derived from male rat medullo-adrenal gland tumor) are inoculated into glass-bottomed Petri dishes previously treated with collagen and polyornithine. They are cultured for 7 days in an atmosphere containing 5% of CO2 at 37° C. in RPMI 1640 medium containing glutamine and supplemented with 10% of horse serum, 5% of fetal calf serum, 50 U/mL of penicillin and 50 μg/mL of streptomycin. To induce the differentiation of the cells, 50 ng/mL of murine neurotrophic growth factor (NGF) 2.5S are added to the medium 24 hours after the inoculation.
The day before the measurement, unlabeled beta-amyloid peptide 1-42 of SEQ. ID. No.: 1 or the corresponding unlabeled reverse peptide (42-1) of SEQ ID No.: 2 is added at different concentrations lying between 10 and 1000 nmol·L^−1.
The following day, this preparation is washed 3 times with Krebs medium at ambient temperature and placed on an inverted microscope coupled with a spectro-fluorimeter. A fluorescence spectrum (excitation 480 nm; emission 495-600 nm) of the base line is recorded before the addition of the labeled amyloid peptide (250 nmol·L^−1). A second fluorescence spectrum is recorded after 10 minutes of incubation.
The base line spectrum is subtracted from the fluorescence spectrum of the labeled amyloid peptide. […] The ratio of the amplitude (measured graphically or else with the deconvolution software) of the Gaussian curves centered respectively at 525 nm and 540 nm defines a spectral index describing the distribution of the spectrum
The PC12 cells are preincubated for 12 hours in the presence of unlabeled beta-amyloid peptide 1-42 or 42-1 then rinsed before being placed under a microscope coupled to a spectrofluorimeter. A first spectrum (base line) is recorded.
Next, the labeled beta-amyloid peptide is added. A spectrum is recorded 10 minutes after the addition of the fluorescent compound.
The spectral index is the ratio between the amplitude of the first and that of the second Gaussian calculated by deconvolution (see FIG. 4).

In assay [2] the test system is rat erythrocytes. Briefly: Spectral index of the labeled amyloid peptide on rat erythrocytes preincubated with unlabeled beta-amyloid peptide. Format: cell-based. Particulars: rat erythrocytes incubated 2 hours at 37° C. with unlabeled peptide (10-1000 nmol·L^-1); FIG. 6. The procedure:
A sample of rat blood (1 to 3 ml) is collected in a heparinized tube. The sample is diluted with Krebs medium then centrifuged three times discarding the buffer layer (“buffy coat”). The erythrocytes obtained are next incubated at 37° C. for 2 hours in the presence of the unlabeled beta-amyloid peptide 1-42 or the corresponding unlabeled reverse peptide (42-1) at various concentrations (10-1000 nmol·L^−1). After an additional washing, the cells are placed in a spectro-fluorimeter and a fluorescence spectrum (excitation 480 nm; emission 495-600 nm) of the base line is recorded before the addition of the labeled amyloid peptide (250 nmol·L^−1). A second fluorescence spectrum is recorded after 10 minutes of incubation in the presence of the labeled amyloid peptide.
The base line spectrum is subtracted from the fluorescence spectrum of the labeled beta-amyloid peptide. The spectrum obtained is broken down into 4 component Gaussian curves by deconvolution and non-linear regression. The ratio of the amplitude of the Gaussian centered around 510 nm to the amplitude of the Gaussian centered around 530 nm is calculated. Its value varies as a function of the concentration of unlabeled beta-amyloid peptide 1-42 in the presence of which the cells were incubated as illustrated in FIG. 6.

On to “beta-amyloid peptide 1-42: unlabeled human beta-amyloid peptide 1-42 of SEQ ID No.: 1”, for which the “change in the value of the spectral index of the labeled amyloid peptide induced by preincubation with unlabeled peptide” value in assay [1] is listed as “increases with the increase in concentration of peptide preincubated”. Moreover, the “value of the spectral index (ratio of Gaussian amplitudes around 510 nm and 530 nm) of the labeled amyloid peptide after preincubation with unlabeled peptide” value in assay [2] was “increases as a function of the concentration”.

Turning to “beta-amyloid peptide 42-1: corresponding unlabeled reverse peptide (42-1) of SEQ ID No.: 2, inactive (AIVVGGVMLGIIAGKNSGVDEAFFVLKQHHVEYGSDHRFEAD; listed as Homo sapiens)”, the “change in the value of the spectral index of the labeled amyloid peptide induced by preincubation with unlabeled peptide” value is listed as “no significant effect” in assay [1] and “absence of change” in assay [1] (listed as β-amyloid peptide 42-1).
